Like-named read-outs stand apart in the source and are kept apart here.
How the values were obtained:
[1] = tested on: isolated, cultured adipocytes; assay: Fatty acid oxidation: incorporation of 14C-labeled oleate into CO2 by cultured adipocytes; format: cell-based, rat
Procedure: Experiments were also carried out to examine fatty acid oxidation by measuring the incorporation of ^14C-labeled oleate into CO2. […] Therefore, to further examine the potential role of fatty acid oxidation adipocytes were incubated with L-carnitine, a cofactor of the rate-limiting step for fatty acid transport into the mitochondria via carnitine-palmitoyl-tranferase (CPT).
Substrate Oxidation: Oxidation is measured using a modification of the method of Rodbell (Rodbell, 1964) and a modification of the cell culture system described by Bottcher and Furst (Bottcher, 1996). Briefly, adipocytes are isolated, counted and sized as previously described. Adipocytes are plated as described except they are placed in a sterile 20 ml scintillation vial instead of a well. Two ml of treatment media containing [U-^14C]-substrate (0.3 uCi/ml; glucose, fatty acids, malate, fumarate, pyruvate) is added to the vials. The vials are filled with 95% O2-5% CO2 gas and capped with rubber stoppers fitted with a hanging center well. Each well contains a 2×8 cm strip of Whatman No. 1 paper. Vials are maintained at 37° C. for 48 hr. […] After 24 hours, the hanging well and paper are transferred to another vial containing scintillation fluid and counted. The data are expressed as % DPM recovered as CO2 of the total DPM remaining in the media at 48 hours and as micromoles of substrate oxidized over time.

isolated rat adipocytes [2] = assay: Incorporation of glucose carbon into triglyceride in cultured adipocytes; format: cell-based; details: Carnitine 20 mM
Procedure: Incorporation of Glucose Carbon into Triglyceride: To measure glucose incorporation into triglyceride, cultures are exposed to media containing 0.01 uCi/ml of ^14C-glucose. After 96 hr, media and extracellular lipid is removed from the well and methanol added. Then scrape the collagen-cell matrix from the well and transfer into a 50 ml glass tube. Rinse the well and scrape again in methanol to assure complete transfer of cells. Total triglycerides will be extracted using the Folch method (Folch, 1957). An aliquot of the lipid extract will be placed into vials containing scintillation fluid then radioactivity will be measured.
The first measurement is used to calculate the amount of glucose incorporated into triglycerides. Another aliquot of the lipid extract is placed into pre-weighed aluminum pans to determine the total amount of triglyceride per well. The remaining lipid is saponified and acidified to separate the glycerol and fatty acids. An aliquot of the lipid extract is placed into vials containing scintillation fluid and counted. This second count represents the ^14C-glucose incorporation into fatty acids. By subtraction, the amount that was incorporated into triglyceride though glycerol is also determined. Glucose incorporation into triglyceride and into the fatty acid portion of the triglyceride are calculated by multiplying disintegration per min by total ug of glucose/well over the total DPM/well.

isolated rat adipocytes [3] = assay: Lactate production and proportion of glucose anaerobically metabolized to lactate in isolated cultured rat adipocytes; format: cell-based; details: Carnitine 20 mM
Procedure: (§1) Cell isolation/preparation: Adipocytes are prepared from epididymal fat pads from male Sprague-Dawley rats weighing 300-600 g. Epididymal fat depots are resected from halothane anesthetized rats under aseptic conditions and adipocytes are isolated by collagenase digestion by the Rodbell method (Rodbell M. Metabolism of isolated fat cells. I. Effects of hormones on glucose metabolism and lipolysis. J Biol Chem. 1964; 239: 375-380), with minor modifications as previously described (Mueller W M, Gregoire F M, Stanhope K L, Mobbs C V, Mizuno T M, Warden C H, Stem J S, Havel P J. Evidence that glucose metabolism regulates leptin secretion from isolated adipocytes. Endocrinology 139: 551-558, 1998; Mueller W M, Stanhope K L, Gregoire F, Evans J L, Havel P J. Effects of metformin and vanadium on leptin secretion from cultured rat adipocytes. Obesity Res. 8: 530-539, 2000; Medina E A, Stanhope K L, Mizuno T M, Mobbs C V, Gregoire F, Hubbard N E, Erickson K L, Havel P J. Effects of tumor necrosis factor alpha on leptin secretion and gene expression: relationship to changes of glucose metabolism in isolated rat adipocytes. Int J Obes Relat Metab Disord. 23: 896-903, 1999.). The isolated adipocytes are then incubated for 30 minutes at 37 C before being plated and cultured on Matrigel-coated plates.
(§2) Adipocyte Culture: Adipocytes are maintained in culture anchored to a basement membrane matrix (Matrigel, Becton Dickinson, Franklin Lakes, N.J.) or collagen from Cohesion Technologies, (Palo Alto, Calif.). Although all in vitro systems have inherent advantages and disadvantages, advantages of this system compared with cultures containing free-floating adipocytes are that the matrix simulates their normal basement membrane attachment and that the cells are maintained in close proximity to each other, allowing direct cell to cell contact. Together the cell contact and basement membrane attachment help to maintain differentiation, since adipocytes have a strong tendency to dedifferentiate in long-term (>24 h) culture. In addition, the matrix and the small amount of serum in the media both contain growth factors, which are also likely to help in maintaining cell differentiation. Furthermore, the adipocytes in this system are not exposed to toxic levels of oxygen at the interface of the media and the incubator atmosphere, as opposed to free-floating adipocytes which aggregate at the surface of the media. An advantage of the system over those containing minced adipose tissue is that all of the cells in the culture are equally exposed to the nutrients and the oxygen dissolved in the media. Thus, although clearly different from the in vivo situation, this system provides a more physiological environment than most systems for maintaining adipocytes in long-term culture.
(§3) In culturing each suspension, Matrigel is first thawed on ice to a liquid and uniformly applied to the surface of culture dishes (300 μl Matrigel/35 mm well). After the incubation period, 150 μl of the adipocyte suspension (2:1 ratio of packed cells to media) are plated on the Matrigel or collagen matrix. Adipocytes from each suspension are thoroughly mixed with a transfer pipette before plating to insure that a similar number adipocytes with a similar size distribution are added to the control and experimental wells for each suspension. The warmth of the added cells and buffer causes the Matrigel to gel around the adipocytes, or the neutralization of the acidic pH of the collagen solution to 7.0 solidifies the collagen, and both of these techniques effectively anchor the adipocytes to the culture dish. After a 30 minute incubation at 37° C., 2 ml of warm culture medium is added. The cells are maintained in an incubator at 37° C. for 96 hours with 6% CO2. Aliquots of adipocytes from each animal are divided into wells, with the different concentrations of insulin or other agents to be tested. In each plate an appropriate control well contains adipocytes from the same animal. […]

isolated rat adipocytes [4] = assay: Glucose oxidation: incorporation of 14C-glucose into CO2 by isolated rat adipocytes; format: cell-based; details: L-carnitine
Procedure: Substrate Oxidation: Oxidation is measured using a modification of the method of Rodbell (Rodbell, 1964) and a modification of the cell culture system described by Bottcher and Furst (Bottcher, 1996). Briefly, adipocytes are isolated, counted and sized as previously described. Adipocytes are plated as described except they are placed in a sterile 20 ml scintillation vial instead of a well. Two ml of treatment media containing [U-^14C]-substrate (0.3 uCi/ml; glucose, fatty acids, malate, fumarate, pyruvate) is added to the vials. The vials are filled with 95% O2-5% CO2 gas and capped with rubber stoppers fitted with a hanging center well. Each well contains a 2×8 cm strip of Whatman No. 1 paper. Vials are maintained at 37° C. for 48 hr. After 48 hr, a sample of media is removed from each vial using a 4 inch, 23 gauge needle. Using another syringe and 23 gauge needle, 200 ul of sodium benzethonium is placed onto the paper strip and hanging well to capture CO2. Concentrated sulfuric acid is added to the vial in order to lyse cells and liberate all CO2 from the collagen matrix. After 24 hours, the hanging well and paper are transferred to another vial containing scintillation fluid and counted. The data are expressed as % DPM recovered as CO2 of the total DPM remaining in the media at 48 hours and as micromoles of substrate oxidized over time.

isolated rat adipocytes [5] = assay: Leptin secretion/production by isolated cultured rat adipocytes (RIA); format: cell-based; details: Carnitine 20 mM, n=12
Procedure: as §1, §2, §3

isolated rat adipocytes [6] = assay: Glucose utilization (uptake) by isolated cultured rat adipocytes; format: cell-based; details: Carnitine 20 mM
Procedure: as §1, §2, §3

isolated rat adipocytes [7] = details: metformin 1.0 mM with 0.16 nM insulin, n=18; cited from earlier work
isolated rat adipocytes [8] = details: metformin 1.0 mM with 0.16 nM insulin, n=18; cited from earlier work; remark: listed apart in the source
isolated rat adipocytes [9] = details: metformin 1.0 mM with 0.16 nM insulin, n=18; cited from earlier work; remark: listed apart in the source

Row | Compound | increase of fatty acid oxidation ([1]; Carnitine 20 mM, n=7, percent of control) [%] | effect on fatty acid oxidation (in words) ([1]; L-carnitine) | effect on incorporation of labeled glucose into TG/lipid (in words) (isolated rat adipocytes [2]) | effect on proportion of glucose metabolized to lactate (in words) (isolated rat adipocytes [3]) | effect on glucose oxidation (in words) (isolated rat adipocytes [4]) | effect on leptin secretion (in words) (isolated rat adipocytes [5]) | effect on glucose utilization (in words) (isolated rat adipocytes [6]) | effect on glucose utilization (in words) (isolated rat adipocytes [7]) | effect on proportion of glucose metabolized to lactate (in words) (isolated rat adipocytes [8]) | effect on leptin secretion (in words) (isolated rat adipocytes [9])
1 | C[N+](C)(C)C[C@H](O)CC(=O)[O-] [Carnitine, L-carnitine] | 50 | increased | inhibited | increased | inhibited | modestly increased | inhibited |  |  | 
2 | CN(C)C(=N)N=C(N)N [metformin] |  |  |  |  |  |  |  | increases | increases | inhibits
